Measured values published in EPA's CvTdb concentration-time database.

Key:
Test in all cases: concentration in plasma after dosing
Rat [1] = conditions: dosed: perfluorohexane-1-sulphonic acid – potassium salt, 4 mg/kg, iv, Female, F344
Rat [2] = conditions: dosed: perfluorohexane-1-sulphonic acid – potassium salt, 4 mg/kg, iv, Female, F344; remark: listed apart in the source
Rat [3] = conditions: dosed: perfluorohexane-1-sulphonic acid – potassium salt, 4 mg/kg, iv, Female, F344; remark: listed apart in the source
Rat [4] = conditions: dosed: perfluorohexane-1-sulphonic acid – potassium salt, 4 mg/kg, iv, Female, F344; remark: listed apart in the source
Rat [5] = conditions: dosed: perfluorohexane-1-sulphonic acid – potassium salt, 4 mg/kg, iv, Female, F344; remark: listed apart in the source
Rat [6] = conditions: 192 h; dosed: perfluorohexane-1-sulphonic acid – potassium salt; 4 mg/kg; iv; Female; F344
Rat [7] = conditions: dosed: perfluorohexane-1-sulphonic acid – potassium salt, 4 mg/kg, iv, Female, F344; remark: listed apart in the source
Rat [8] = conditions: iv
Rat [9] = conditions: dosed: perfluorohexane-1-sulphonic acid – potassium salt, 4 mg/kg, iv, Female, F344; remark: listed apart in the source
Rat [10] = conditions: dosed: perfluorohexane-1-sulphonic acid – potassium salt, 4 mg/kg, iv, Female, F344; remark: listed apart in the source
Rat [11] = conditions: dosed: perfluorohexane-1-sulphonic acid – potassium salt, 4 mg/kg, iv, Female, F344; remark: listed apart in the source
Rat [12] = conditions: dosed: perfluorohexane-1-sulphonic acid – potassium salt, 4 mg/kg, iv, Female, F344; remark: listed apart in the source
Rat [13] = conditions: dosed: perfluorohexane-1-sulphonic acid – potassium salt, 4 mg/kg, iv, Female, F344; remark: listed apart in the source
Rat [14] = conditions: 1 h; dosed: perfluorohexane-1-sulphonic acid – potassium salt; 4 mg/kg; iv; Female; F344
Rat [15] = conditions: dosed: perfluorohexane-1-sulphonic acid – potassium salt, 4 mg/kg, iv, Female, F344; remark: listed apart in the source
Rat [16] = conditions: dosed: perfluorohexane-1-sulphonic acid – potassium salt, 4 mg/kg, iv, Female, F344; remark: listed apart in the source
Rat [17] = conditions: dosed: perfluorohexane-1-sulphonic acid – potassium salt, 4 mg/kg, iv, Female, F344; remark: listed apart in the source
Rat [18] = conditions: dosed: perfluorohexane-1-sulphonic acid – potassium salt, 4 mg/kg, iv, Female, F344; remark: listed apart in the source
Rat [19] = conditions: dosed: perfluorohexane-1-sulphonic acid – potassium salt, 4 mg/kg, iv, Female, F344; remark: listed apart in the source
Rat [20] = conditions: dosed: perfluorohexane-1-sulphonic acid – potassium salt, 4 mg/kg, iv, Female, F344; remark: listed apart in the source
Rat [21] = conditions: dosed: perfluorohexane-1-sulphonic acid – potassium salt, 4 mg/kg, iv, Female, F344; remark: listed apart in the source
Rat [22] = conditions: dosed: perfluorohexane-1-sulphonic acid – potassium salt, 4 mg/kg, iv, Female, F344; remark: listed apart in the source
Rat [23] = conditions: dosed: perfluorohexane-1-sulphonic acid – potassium salt, 4 mg/kg, iv, Female, F344; remark: listed apart in the source
Rat [24] = conditions: dosed: perfluorohexane-1-sulphonic acid – potassium salt, 4 mg/kg, iv, Female, F344; remark: listed apart in the source
Rat [25] = conditions: dosed: perfluorohexane-1-sulphonic acid – potassium salt, 4 mg/kg, iv, Female, F344; remark: listed apart in the source
Rat [26] = conditions: dosed: perfluorohexane-1-sulphonic acid – potassium salt, 4 mg/kg, iv, Female, F344; remark: listed apart in the source
Rat [27] = conditions: 5 min; dosed: Di-n-butyl phthalate; 20 mg/kg; iv; Male; Sprague-Dawley
Rat [28] = conditions: 5 min; dosed: Di-n-butyl phthalate; 20 mg/kg; iv; Male; Sprague-Dawley; remark: listed apart in the source
Rat [29] = conditions: 10 min; dosed: Di-n-butyl phthalate; 20 mg/kg; iv; Male; Sprague-Dawley
Rat [30] = conditions: 10 min; dosed: Di-n-butyl phthalate; 20 mg/kg; iv; Male; Sprague-Dawley; remark: listed apart in the source

O=S(=O)([O-])C(F)(F)C(F)(F)C(F)(F)C(F)(F)C(F)(F)C(F)(F)F.[K+] [perfluorohexane-1-sulphonic acid – potassium salt]
Conditions	concentration in plasma [ng/mL]
Rat [1], 0.5 h	4200
Rat [1], 24 h	1370
Rat [2], 0.25 h	5150
Rat [2], 12 h	2040
Rat [3], 0.5 h	4010
Rat [3], 24 h	1450
Rat [4], 0.25 h	2050
Rat [4], 6 h	1440
Rat [4], 528 h	491
Rat [5], 0.25 h	4180
Rat [5], 12 h	1750
Rat [7], 0.5 h	2900
Rat [7], 12 h	2090
Rat [7], 1200 h	288
Rat [9], 0.25 h	4180
Rat [9], 6 h	2530
Rat [9], 864 h	818
Rat [10], 5 min	842
Rat [10], 6 h	298
Rat [11], 1 h	3840
Rat [11], 48 h	1000
Rat [12], 3 h	2910
Rat [12], 5 min	6770
Rat [12], 528 h	879
Rat [13], 5 min	5590
Rat [13], 6 h	2440
Rat [13], 192 h	126
Rat [15], 1 h	3140
Rat [15], 24 h	2330
Rat [15], 1200 h	393
Rat [16], 1 h	3150
Rat [16], 48 h	1130
Rat [17], 3 h	3150
Rat [17], 96 h	484
Rat [18], 5 min	6140
Rat [18], 6 h	2330
Rat [18], 192 h	118
Rat [19], 0.5 h	4140
Rat [19], 24 h	1650
Rat [20], 3 h	3290
Rat [20], 96 h	566
Rat [21], 1 h	3180
Rat [21], 48 h	842
Rat [22], 3 h	2550
Rat [22], 96 h	387
Rat [23], 3 h	2380
Rat [23], 5 min	4710
Rat [23], 192 h	1450
Rat [24], 0.25 h	4330
Rat [24], 12 h	1840
Rat [25], 0.5 h	3610
Rat [25], 12 h	2480
Rat [25], 864 h	496
Rat [26], 0.5 h	3970
Rat [26], 24 h	2200
Rat [26], 1200 h	494

Conditions	concentration in plasma [ng/mL]
Rat [6]	1390
Rat [14]	170

Rat [8], dosed: perfluorohexane-1-sulphonic acid – potassium salt, 4 mg/kg, Female, F344
Conditions	concentration in plasma [ng/mL]
0.25 h	3900
1 h	3190
3 h	1890
5 min	5260
6 h	2390
12 h	2230
24 h	2030
192 h	1200
528 h	519
864 h	551

CCCCOC(=O)c1ccccc1C(=O)OCCCC [Di-n-butyl phthalate]
Conditions	concentration in plasma [ng/mL]
Rat [27]	1210
Rat [28]	10700
Rat [29]	4220
Rat [30]	2950

Rat [8], dosed: Di-n-butyl phthalate, 20 mg/kg, Male, Sprague-Dawley
Conditions	concentration in plasma [ng/mL]
5 min	9370
10 min	3520
20 min	957
